From patent publication US8802597B2, “Herbicidal pyrimidines” (E I du Pont de Nemours and Company, priority 2003, dated 2014)

Experiments:
Type in all cases: in vivo
[1] = tested on: catchweed bedstraw (galium; Galium aparine); assay: Test D pre/postemergence; settings: scale 0 to 100 (100 = complete control)
Source text: (§1) Seeds of plant species selected from catchweed bedstraw (galium; Galium aparine), common chickweed (Stellaria media), kochia (Kochia scoparia), lambsquarters (Chenopodium album), pigweed (Amaranthus retroflexus), Russian thistle (Salsola kali), wild buckwheat (Polygonum convolvulus), wild mustard (Sinapis arvensis), winter barley (Hordeum vulgare), and wheat (Triticum aestivum) were planted and treated preemergence with test chemicals formulated in a non-phytotoxic solvent mixture which included a surfactant.
(§2) At the same time, plants selected from these crop and weed species were treated with postemergence applications of some of the test chemicals formulated in the same manner. Plants ranged in height from 2 to 18 cm (1- to 4-leaf stage) for postemergence treatments. Treated plants and controls were maintained in a controlled growth environment for 15 to 25 days after which time all species were compared to controls and visually evaluated. Plant response ratings, summarized in Table D, are based on a scale of 0 to 100 where 0 is no effect and 100 is complete control. A dash (-) response means no test result.

[2] = tested on: lambsquarters (Chenopodium album); assay: Test D pre/postemergence; settings: scale 0 to 100 (100 = complete control)
Source text: as §1, §2

kochia (Kochia scoparia) = assay: Test D pre/postemergence; settings: scale 0 to 100 (100 = complete control)
Source text: as §1, §2

[3] = tested on: Russian thistle (Salsola kali); assay: Test D pre/postemergence; settings: scale 0 to 100 (100 = complete control)
Source text: as §1, §2

[4] = tested on: common chickweed (Stellaria media); assay: Test D pre/postemergence; settings: scale 0 to 100 (100 = complete control)
Source text: as §1, §2

[5] = tested on: wild mustard (Sinapis arvensis); assay: Test D pre/postemergence; settings: scale 0 to 100 (100 = complete control)
Source text: as §1, §2

[6] = tested on: wild buckwheat (Polygonum convolvulus); assay: Test D pre/postemergence; settings: scale 0 to 100 (100 = complete control)
Source text: as §1, §2

[7] = tested on: wheat (Triticum aestivum); assay: Test D pre/postemergence; settings: scale 0 to 100 (100 = complete control)
Source text: as §1, §2

[8] = tested on: pigweed (Amaranthus retroflexus); assay: Test D pre/postemergence; settings: scale 0 to 100 (100 = complete control)
Source text: as §1, §2

[9] = tested on: tropical spiderwort (Commelina benghalensis); assay: Test G pre/postemergence
Source text: (§3) Seeds or nutlets of plant species selected from bermudagrass (Cynodon dactylon), Surinam grass (Brachiaria decumbens), large crabgrass (Digitaria sanguinalis), green foxtail (Setaria viridis), goosegrass (Eleusine indica), johnsongrass (Sorghum halepense), kochia (Kochia scoparia), pitted morningglory (Ipomoea lacunosa), purple nutsedge (Cyperus rotundus), common ragweed (Ambrosia elatior), black mustard (Brassica nigra), guineagrass (Panicum maximum), dallisgrass (Paspalum dilatatum), barnyardgrass (Echinochloa crus-galli), southern sandbur (Cenchrus echinatus), common sowthistle (Sonchus oleraceous), prickly sida (Sida spinosa), Italian ryegrass (Lolium multiflorum), common purslane (Portulaca oleracea), broadleaf signalgrass (Brachiaria platyphylla), common groundsel (Senecio vulgaris), common chickweed (Stellaria media), tropical spiderwort (Commelina benghalensis), annual bluegrass (Poa annua), downy bromegrass (Bromus tectorum), itchgrass (Rottboellia cochinchinensis), quackgrass (Elytrigia repens), Canada horseweed (Conyza canadensis), field bindweed (Convolvulus arvensis), spanishneedles (Bidens bipinnata), common mallow (Malva sylvestris), and Russian thistle (Salsola kali) were planted and treated preemergence with test chemicals formulated in a non-phytotoxic solvent mixture which included a surfactant.
(§4) At the same time, plants selected from these weed species were treated with postemergence applications of some of the test chemicals formulated in the same manner. Plants ranged in height from 2 to 18 cm (1- to 4-leaf stage) for postemergence treatments. Treated plants and controls were maintained in a greenhouse for 12 to 21 days, after which time all species were compared to controls and visually evaluated.
(§5) Plant response ratings, summarized in Table G, are based on a scale of 0 to 100 where 0 is no effect and 100 is complete control. A dash (-) response means no test result.

[10] = tested on: dallisgrass (Paspalum dilatatum); assay: Test G pre/postemergence
Source text: as §3, §4, §5

[11] = tested on: black mustard (Brassica nigra); assay: Test G pre/postemergence
Source text: as §3, §4, §5

[12] = tested on: goosegrass (Eleusine indica); assay: Test G pre/postemergence
Source text: as §3, §4, §5

[13] = Postemergence, 250 g ai/ha, scale 0 to 100
[14] = Postemergence, 500 g ai/ha, scale 0 to 100
[15] = Postemergence, 62 g ai/ha, scale 0 to 100
[16] = Postemergence, 125 g ai/ha, scale 0 to 100
[17] = Postemergence, 375 g ai/ha, scale 0 to 100
[18] = Preemergence, 62 g ai/ha, scale 0-100
[19] = Preemergence, 125 g ai/ha, scale 0-100
[20] = Preemergence, 250 g ai/ha, scale 0-100
[21] = Preemergence, 500 g ai/ha, scale 0 to 100
[22] = Preemergence, 375 g ai/ha, scale 0 to 100

CCOC(=O)c1nc(C2CC2)nc(N)c1Br [Compound 1, ethyl 6-amino-5-bromo-2-cyclopropyl-4-pyrimidinecarboxylate]
95: Plant response rating, Galium ([1]; Postemergence, 16 g ai/ha) | Plant response rating, Lambsquarters ([2]; Postemergence, 16 g ai/ha) | Plant response rating, Lambsquarters ([2]; Postemergence, 31 g ai/ha) | Plant response rating, Pigweed ([8]; Preemergence, 62 g ai/ha) | Plant response rating, Spiderwort [9, 13] | Plant response rating, Spiderwort [9, 14] | Plant response rating, Spiderwort [9, 15] | Plant response rating, Spiderwort [9, 16] | Plant response rating, Spiderwort [9, 17] | Plant response rating, Dallisgrass [10, 21] | Plant response rating, Dallisgrass [10, 22]
20: Plant response rating, Dallisgrass [10, 16] | Plant response rating, Goosegrass [12, 15]
65: Plant response rating, Lambsquarters ([2]; Preemergence, 16 g ai/ha) | Plant response rating, Kochia (kochia (Kochia scoparia); Preemergence, 16 g ai/ha) | Plant response rating, Russian Thistle ([3]; Postemergence, 31 g ai/ha) | Plant response rating, Chickweed ([4]; Postemergence, 16 g ai/ha) | Plant response rating, Chickweed ([4]; Postemergence, 31 g ai/ha) | Plant response rating, Chickweed ([4]; Postemergence, 62 g ai/ha) | Plant response rating, Chickweed ([4]; Preemergence, 31 g ai/ha) | Plant response rating, Mustard, Wild ([5]; Preemergence, 31 g ai/ha)
60: Plant response rating, Chickweed ([4]; Preemergence, 16 g ai/ha) | Plant response rating, Mustard, Wild ([5]; Postemergence, 16 g ai/ha) | Plant response rating, Buckwheat, Wild ([6]; Preemergence, 31 g ai/ha) | Plant response rating, Pigweed ([8]; Postemergence, 16 g ai/ha) | Plant response rating, Pigweed ([8]; Preemergence, 16 g ai/ha) | Plant response rating, Black Mustard [11, 15] | Plant response rating, Goosegrass [12, 13] | Plant response rating, Goosegrass [12, 14] | Plant response rating, Goosegrass [12, 16] | Plant response rating, Goosegrass [12, 17]
75: Plant response rating, Lambsquarters ([2]; Preemergence, 31 g ai/ha) | Plant response rating, Kochia (kochia (Kochia scoparia); Preemergence, 31 g ai/ha) | Plant response rating, Chickweed ([4]; Preemergence, 125 g ai/ha) | Plant response rating, Mustard, Wild ([5]; Postemergence, 125 g ai/ha) | Plant response rating, Buckwheat, Wild ([6]; Preemergence, 125 g ai/ha) | Plant response rating, Black Mustard [11, 13] | Plant response rating, Black Mustard [11, 14] | Plant response rating, Black Mustard [11, 16] | Plant response rating, Black Mustard [11, 17]
0: Plant response rating, Dallisgrass [10, 18] | Plant response rating, Goosegrass [12, 18]
100: Plant response rating, Galium ([1]; Postemergence, 31 g ai/ha) | Plant response rating, Galium ([1]; Postemergence, 62 g ai/ha) | Plant response rating, Galium ([1]; Postemergence, 125 g ai/ha) | Plant response rating, Galium ([1]; Preemergence, 62 g ai/ha) | Plant response rating, Galium ([1]; Preemergence, 125 g ai/ha) | Plant response rating, Lambsquarters ([2]; Postemergence, 62 g ai/ha) | Plant response rating, Lambsquarters ([2]; Postemergence, 125 g ai/ha) | Plant response rating, Lambsquarters ([2]; Preemergence, 125 g ai/ha) | Plant response rating, Kochia (kochia (Kochia scoparia); Postemergence, 31 g ai/ha) | Plant response rating, Kochia (kochia (Kochia scoparia); Postemergence, 62 g ai/ha) | Plant response rating, Kochia (kochia (Kochia scoparia); Postemergence, 125 g ai/ha) | Plant response rating, Kochia (kochia (Kochia scoparia); Preemergence, 62 g ai/ha) | Plant response rating, Kochia (kochia (Kochia scoparia); Preemergence, 125 g ai/ha) | Plant response rating, Russian Thistle ([3]; Postemergence, 125 g ai/ha) | Plant response rating, Russian Thistle ([3]; Preemergence, 16 g ai/ha) | Plant response rating, Russian Thistle ([3]; Preemergence, 31 g ai/ha) | Plant response rating, Russian Thistle ([3]; Preemergence, 62 g ai/ha) | Plant response rating, Russian Thistle ([3]; Preemergence, 125 g ai/ha) | Plant response rating, Wheat ([7]; Postemergence, 125 g ai/ha) | Plant response rating, Pigweed ([8]; Postemergence, 31 g ai/ha) | Plant response rating, Pigweed ([8]; Postemergence, 62 g ai/ha) | Plant response rating, Pigweed ([8]; Postemergence, 125 g ai/ha) | Plant response rating, Pigweed ([8]; Preemergence, 125 g ai/ha) | Plant response rating, Spiderwort [9, 19] | Plant response rating, Spiderwort [9, 20] | Plant response rating, Spiderwort ([9]; Preemergence, 500 g ai/ha, scale 0-100) | Plant response rating, Spiderwort [9, 21] | Plant response rating, Black Mustard [11, 21] | Plant response rating, Black Mustard [11, 22]
35: Plant response rating, Wheat ([7]; Preemergence, 16 g ai/ha)
45: Plant response rating, Russian Thistle ([3]; Postemergence, 16 g ai/ha) | Plant response rating, Buckwheat, Wild ([6]; Preemergence, 16 g ai/ha)
50: Plant response rating, Mustard, Wild ([5]; Preemergence, 16 g ai/ha) | Plant response rating, Buckwheat, Wild ([6]; Postemergence, 16 g ai/ha) | Plant response rating, Dallisgrass [10, 20] | Plant response rating, Goosegrass [12, 20] | Plant response rating, Goosegrass [12, 21] | Plant response rating, Goosegrass [12, 22]
85: Plant response rating, Lambsquarters ([2]; Preemergence, 62 g ai/ha) | Plant response rating, Kochia (kochia (Kochia scoparia); Postemergence, 16 g ai/ha) | Plant response rating, Russian Thistle ([3]; Postemergence, 62 g ai/ha) | Plant response rating, Chickweed ([4]; Postemergence, 125 g ai/ha) | Plant response rating, Black Mustard [11, 20]
80: Plant response rating, Galium ([1]; Preemergence, 16 g ai/ha) | Plant response rating, Galium ([1]; Preemergence, 31 g ai/ha) | Plant response rating, Buckwheat, Wild ([6]; Postemergence, 31 g ai/ha) | Plant response rating, Buckwheat, Wild ([6]; Postemergence, 62 g ai/ha) | Plant response rating, Buckwheat, Wild ([6]; Postemergence, 125 g ai/ha) | Plant response rating, Wheat ([7]; Postemergence, 31 g ai/ha) | Plant response rating, Black Mustard [11, 19]
40: Plant response rating, Wheat ([7]; Postemergence, 16 g ai/ha)
70: Plant response rating, Chickweed ([4]; Preemergence, 62 g ai/ha) | Plant response rating, Mustard, Wild ([5]; Postemergence, 31 g ai/ha) | Plant response rating, Mustard, Wild ([5]; Postemergence, 62 g ai/ha) | Plant response rating, Mustard, Wild ([5]; Preemergence, 62 g ai/ha) | Plant response rating, Buckwheat, Wild ([6]; Preemergence, 62 g ai/ha) | Plant response rating, Wheat ([7]; Preemergence, 31 g ai/ha) | Plant response rating, Wheat ([7]; Preemergence, 62 g ai/ha) | Plant response rating, Wheat ([7]; Preemergence, 125 g ai/ha) | Plant response rating, Pigweed ([8]; Preemergence, 31 g ai/ha) | Plant response rating, Spiderwort [9, 18]
10: Plant response rating, Dallisgrass [10, 15] | Plant response rating, Dallisgrass [10, 19]
90: Plant response rating, Mustard, Wild ([5]; Preemergence, 125 g ai/ha) | Plant response rating, Wheat ([7]; Postemergence, 62 g ai/ha)
30: Plant response rating, Dallisgrass [10, 13] | Plant response rating, Dallisgrass [10, 14] | Plant response rating, Dallisgrass [10, 17] | Plant response rating, Black Mustard [11, 18]
